Experimental data: US9556152B2, “Heterocyclic amides as kinase inhibitors” (GlaxoSmithKline Intellectual Property Development Limited, priority 2013, dated 2017)
Like-named read-outs stand apart in the source and are kept apart here.

Columns and labels:
[1] = test system: mouse TNF and zVAD induced temperature loss in mice; test: TNF/zVAD-driven systemic inflammatory response syndrome model (short modality), temperature loss; assay type: in vivo
Method: (§1) TNF (or TNF/zVAD) induced manifestations include temperature loss, the production of numerous cytokines (including IL-6, IL-1b, MIP1β and MIP2) in the periphery, liver and intestinal inflammation and an increase of markers of cellular (LDH and CK) and liver damage (AST and ALT) in the serum.
Each test compound is run through the TNF/zVAD and TNF (alone) versions of the model. For example, mice (7 mice per group) were orally pre-dosed with vehicle or test compound at 50 mg/kg 15 minutes before i.v. administration of mouse TNF (30 m/mouse) and zVAD (0.4 mg/mouse) simultaneously. Temperature loss in the mice was measured by rectal probe. The study was terminated when the control group lost 7 degrees, per our IACUC protocol. […] All data are shown as means±standard error of the mean.

[2] = test system: mouse TNF induced temperature loss in mice; test: TNF (alone)-driven systemic inflammatory response syndrome model (long modality), temperature loss; assay type: in vivo; conditions: oral pre-dose 50 mg/kg 15 minutes before i.v. mouse TNF
Method: as §1
In addition to the TNF/zVAD model, each compound is also tested in a TNF alone model. For the TNF (alone) version of the model, mice (7 mice per group) were orally pre-dosed with vehicle or test compound at 50 mg/kg 15 minutes before i.v. administration of mouse TNF (30 m/mouse). […] All data are shown as means±standard error of the mean.

[3] = molecular target: T1, RIP1 kinase (GST-RipK1 (1-375)) (Homo sapiens, UniProt Q13546)
T1 sequence (Q13546 1-375): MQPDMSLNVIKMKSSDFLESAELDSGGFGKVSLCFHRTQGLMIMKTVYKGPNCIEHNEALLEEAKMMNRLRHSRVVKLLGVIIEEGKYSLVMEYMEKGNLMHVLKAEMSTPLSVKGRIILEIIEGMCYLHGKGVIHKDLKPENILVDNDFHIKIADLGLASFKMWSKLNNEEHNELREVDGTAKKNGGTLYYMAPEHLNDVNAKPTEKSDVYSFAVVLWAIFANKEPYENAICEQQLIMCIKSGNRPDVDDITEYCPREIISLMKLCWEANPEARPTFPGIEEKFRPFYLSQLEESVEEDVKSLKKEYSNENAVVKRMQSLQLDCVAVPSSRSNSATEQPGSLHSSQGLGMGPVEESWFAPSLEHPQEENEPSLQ
Method: A fluorescent polarization based binding assay was developed to quantitate interaction of novel test compounds at the ATP binding pocket of RIP1, by competition with a fluorescently labeled ATP competitive ligand. […] Following the incubation, 5 ul of the fluorescent labeled ligand solution, was added to each reaction, at twice the final assay concentration, and incubated at room temperature for at least 15 minutes. Finally, samples were read on an instrument capable of measuring fluorescent polarization. Test compound inhibition was expressed as percent (%) inhibition of internal assay controls. For concentration response experiments, normalized data were fit and pIC50s determined using conventional techniques.

[4] = oral pre-dose 30 mg/kg 15 minutes before i.v. mouse TNF and zVAD
[5] = oral pre-dose 10 mg/kg 15 minutes before i.v. mouse TNF and zVAD
[6] = mean pIC50, FP competition binding, GST-RipK1 (1-375) 10 nM, fluorescent ligand 5 nM, mean of minimum 2 experiments
[7] = average pIC50 after continued testing, FP competition binding, updated average after continued testing

| IC50 [3, 6] [nM] | Structure (SMILES) | % Inhibition [1, 4] [%] | other results |
| --- | --- | --- | --- |
|  | CN1C(=O)[C@@H](NC(=O)c2cc(Cc3ccccc3)n[nH]2)COc2ccc(Br)cc21 [Example 20, (S)-3-benzyl-N-(7-bromo-5-methyl-4-oxo-2,3,4,5-tetrahydrobenzo[b] [1,4]oxazepin-3-yl)-1H-pyrazole-5-carboxamide] | 52 | % Inhibition [2]: 51% |
|  | CN1C(=O)[C@@H](NC(=O)c2ncn(Cc3ccccc3)n2)COc2ccccc21 [Example 45, (S)-1-benzyl-N-(5-methyl-4-oxo-2,3,4,5-tetrahydrobenzo[b] [1,4]oxazepin-3-yl)-1H-1,2,4-triazole-3-carboxamide] |  | % Inhibition [1, 5]: 91% |
|  | Cc1ccc(Cc2cc(C(=O)N[C@H]3CNc4ccccc4N(C)C3=O)n[nH]2)cc1 [Example 64, (S)-N-(1-methyl-2-oxo-2,3,4,5-tetrahydro-1H-benzo[b][1,4]diazepin-3-yl)-5-(4-methylbenzyl)-1H-pyrazole-3-carboxamide] | 62 |  |
| ~25.1 | CN1C(=O)[C@@H](NC(=O)c2nnc(Cc3ccccc3)[nH]2)COc2cccc(F)c21 [Example 91, (S)-5-benzyl-N-(6-fluoro-5-methyl-4-oxo-2,3,4,5-tetrahydrobenzo[b] [1,4]oxazepin-3-yl)-4H-1,2,4-triazole-3-carboxamide] |  |  |
|  | CN1C(=O)[C@@H](NC(=O)c2cc(Oc3ccccc3)ccn2)COc2ccccc21 [Example 97, (S)-N-(5-methyl-4-oxo-2,3,4,5-tetrahydrobenzo[b] [1,4]oxazepin-3-yl)-4-phenoxypicolinamide] | 70 |  |
| ~15.8 | Cc1cc(F)c2c(c1)OC[C@H](NC(=O)c1nnc(CC3CCCC3)[nH]1)C(=O)N2 [Example 102, (S)-5-(cyclopentylmethyl)-N-(6-fluoro-8-methyl-4-oxo-2,3,4,5-tetrahydrobenzo[b] [1,4]oxazepin-3-yl)-4H-1,2,4-triazole-3-carboxamide] |  |  |
|  | CN1C(=O)[C@@H](NC(=O)c2cc(Cc3ccccc3)n[nH]2)COc2ccccc21 [Example 108, (S)-3-benzyl-N-(5-methyl-4-oxo-2,3,4,5-tetrahydrobenzo[b] [1,4]oxazepin-3-yl)-1H-pyrazole-5-carboxamide] | 56 |  |
|  | CN1C(=O)[C@@H](NC(=O)c2cc(Cc3ccc(F)cc3)n[nH]2)COc2ccccc21 [Example 125, (S)-3-(4-fluorobenzyl)-N-(5-methyl-4-oxo-2,3,4,5-tetrahydrobenzo[b] [1,4]oxazepin-3-yl)-1H-pyrazole-5-carboxamide] | 25 |  |
| ~12.6 | O=C(N[C@H]1CCc2cc(Br)ccc2NC1=O)c1nnc(Cc2ccccc2)[nH]1 [Example 163, (S)-5-benzyl-N-(7-bromo-2-oxo-2,3,4,5-tetrahydro-1H-benzo[b]azepin-3-yl)-4H-1,2,4-triazole-3-carboxamide] |  | % Inhibition [1, 5]: 73% |
| ~63.1 | Cc1nnc(-c2ccc3c(c2)N(C)C(=O)[C@@H](NC(=O)c2nnc(Cc4ccccc4)[nH]2)CO3)o1 [Example 169, (S)-5-benzyl-N-(5-methyl-7-(5-methyl-1,3,4-oxadiazol-2-yl)-4-oxo-2,3,4,5-tetrahydrobenzo[b][1, 4]oxazepin-3-yl)-4H-1,2,4-triazole-3-carboxamide] |  | IC50 [3, 7]: 50.1 nM |
|  | Cc1ccc(Cc2cc(C(=O)N[C@H]3COc4ccccc4N(C)C3=O)[nH]n2)cc1 [Example 176, (S)-N-(5-methyl-4-oxo-2,3,4,5-tetrahydrobenzo[b] [1,4]oxazepin-3-yl)-5-(4-methylbenzyl)-1H-pyrazole-3-carboxamide] | 34 |  |
|  | CN1C(=O)[C@@H](NC(=O)c2cc(Cc3ccccc3)[nH]n2)CNc2ccccc21 [Example 190, (S)-5-benzyl-N-(1-methyl-2-oxo-2,3,4,5-tetrahydro-1H-benzo[b] [1,4]diazepin-3-yl)-1H-pyrazole-3-carboxamide] | 85 | % Inhibition [2]: 56% |
|  | CN1C(=O)[C@@H](NC(=O)c2cc(Cc3ccccc3)on2)CNc2ccccc21 [Example 235, (S)-5-benzyl-N-(1-methyl-2-oxo-2,3,4,5-tetrahydro-1H-benzo[b] [1,4]diazepin-3-yl)isoxazole-3-carboxamide] | 58 | % Inhibition [2]: 73% |
|  | O=C(N[C@H]1CCc2ccccc2NC1=O)c1cc(Cc2ccccc2)on1 [Example 236, (S)-5-benzyl-N-(2-oxo-2,3,4,5-tetrahydro-1H-benzo[b]azepin-3-yl)isoxazole-3-carboxamide] | 23 |  |

| Structure (SMILES) | IC50 [3, 6] [nM] | % Inhibition [1, 4] [%] | other results |
| --- | --- | --- | --- |
| O=C(N[C@H]1CCc2cc(Cl)ccc2NC1=O)c1nnc(Cc2ccccc2)[nH]1 [Example 161, (S)-5-benzyl-N-(7-chloro-2-oxo-2,3,4,5-tetrahydro-1H-benzo[b]azepin-3-yl)-4H-1,2,4-triazole-3-carboxamide] | ~12.6 |  | % Inhibition ([1]; oral pre-dose 50 mg/kg 15 minutes before i.v. mouse TNF and zVAD): 85%; % Inhibition [2]: 82%; IC50 [3, 7]: 20 nM |
